Values of other authors as cited in patent US9901098B2, “Methods for plant protection” (TDA Research, Inc, priority 2015, dated 2018).

How the values were obtained:
[1] = test system: human workers
[2] = test system: microbes

[O][Cl+][O-] [ClO2, chlorine dioxide]
permissible exposure level (PEL) in air [1]: 0.1 ppm
concentration that effectively kills microbes ([2]; aqueous solutions): ≤ 1 ppm
time required to kill microbes ([2]; solutions containing 1 ppm ClO2 or less): as short as one minute
